These results are taken from a melting point compilation (Tetko et al.; mined from patent text by program, amines drawn as free bases though some values may be those of a salt).

Regarding `Nc1cnc2c(c1)CCCC2`, the melting point lay within 97 to 98 °C.
For the compound `C#CCCCON1Sc2cccc3cccc1c23`, the melting point lay within 56 to 59 °C.
For `CC(C)(C)OC(=O)C[C@H](NC(=O)c1ccc(CCC(=O)NC2=NCCCN2)s1)c1ccc2c(c1)OCO2` the value was 130 °C; for `CCN(CC)C(=O)n1ccc(Sc2ccc(Cl)cc2Cl)n1`, 96 to 97 °C.
With `COc1ccc(OCCOc2ccc(C(=O)C(=O)O)cc2)cc1OC`, the melting point was 140 to 141 °C.
For `COC(=O)c1cc(OCCCN2CCN(c3cccc4sccc34)CC2)n(C)n1` the value was 109 to 110 °C.
`CC1C(=O)NCC1C(N)=O` (stereo unspecified): the melting point was in the range of 169 to 171 °C.
For `Cc1nn(C)c(N)c1C#N` the value was 193 to 195 °C.
In turn, `O=C1Nc2cc(C(F)(F)F)cc(C(F)(F)F)c2C1=O` had a melting point of 200 to 203 °C.
`CCN(CC)S(=O)(=O)c1cc2c(c(C(=O)O)c1)OCCO2` had a melting point of 149 °C.
In turn, `CC(C)(CO)NS(=O)(=O)c1cccc(NC(=O)c2cnn3c(C(F)(F)F)cc(-c4ccc(Cl)cc4)nc23)c1` registered a melting point of 271 °C.
Compound `C[C@H](CCC[C@@H](C)[C@H]1C(=O)C[C@H]2[C@@H]3CC=C4C[C@@H](O)CC[C@]4(C)[C@H]3CC[C@]12C)CN1C(=O)c2ccccc2C1=O` returned a melting point of 55 °C.
In turn, `CCOC(=O)c1c(N2CCN(CCO)CC2)c2cc(Cl)ccc2[nH]c1=O` gave a melting point of 130 to 134 °C.
In the case of `O=P(O)(O)C(O)(CCc1ccc(Cl)c(Cl)c1)P(=O)(O)O`, the melting point was found to be 187 °C.
`CCn1nc(C(=O)NC2CN(C)CCN(C(=O)c3ccccc3)C2)c2ccccc21` (stereo unspecified) came in with a melting point of 100 to 103 °C.
For `O=C(Nc1cccnc1)N1CCN(c2nccc(-c3c(F)cccc3F)n2)CC1` the value was 185 to 186 °C; for `O=C(CCBr)NCC(=O)c1ccccc1`, 114 °C.
To `CCN(CC)c1ccc2cc(N)c(=O)oc2c1` belongs 85 to 87 °C; to `O=Cc1ccc(Oc2ccc([N+](=O)[O-])cc2)cc1`, 101 to 104 °C.
Turning to `Sc1nc2cc3ccccc3cc2o1`, the melting point was 101 to 102 °C.
`CSc1cc(CCC(=O)O)cc(-c2nc(=O)c3ccccc3s2)n1` had a melting point of 236 °C.
The compound `Cc1cc(=O)oc2c1c(C)nn2CCO` displayed a melting point of 152 to 153 °C.
For `CC1OC1COc1ccc(C(=O)OC(C)(C)C)cc1` (stereo unspecified) the value was 47 to 48 °C; for `O=C(O)COC1=C(Cc2ccc3c(Br)cccc3c2)C(=O)CCC1`, 234 to 236 °C; for `Cc1ccc(CN2CCN(C(=O)OC(C)(C)C)CC2)cc1`, 61 to 62 °C.
For `O=C(O)c1cc(SCc2ccccc2)c(-c2ccccc2)c([N+](=O)[O-])c1` the value was 188 to 189 °C; for `CC(C)CCCC(C)C1CCC2C3=C(CCC21C)C1(C)CCC(O)C(C)(C)C1CC3` (stereo unspecified), 154 to 155 °C.
As to `Cc1cccc(C)c1NCc1nnc(S)n1C`, the melting point was 172 to 173 °C.
The compound `NCc1ccc2c(c1)c(C1CCN(CCN3CCNC3=O)CC1)cn2-c1ccc(F)cc1` gave a melting point of 171 to 175 °C.
The compound `O=C(c1ccccc1)C(c1cccc2ccccc12)P(=O)(O)O` (stereo unspecified) had a melting point of 184 to 187 °C.
On to `COc1ccc2ccccc2c1C1C(CC(=O)O)CC(=O)N1c1ccccc1` (stereo unspecified), for which the melting point lay in the range of 198 to 203 °C.
To `CCCC(c1ccc(C#N)cc1)n1ccnc1` (stereo unspecified) belongs 63 to 71 °C; to `COc1ccc(C#N)cc1/C=C/C(=O)N[C@H](CO)CN1CCC(C(=O)c2ccc(Cl)cc2)CC1`, 162 to 163 °C; to `CC(N=C(NN)NN)C(=O)O` (stereo unspecified), 175 to 177 °C.
The compound `c1ccc2c(c1)CSSC2` came in with a melting point of 77 to 78 °C.
Turning to `Cc1n[nH]c(NCCCCOc2cccc(CN3CCCCC3)c2)n1`, the melting point was 138 to 139 °C.
Take `CN(C)C(=Nc1ccccc1)N(C)N1C(=O)c2ccccc2C1=O`: the melting point fell in the range of 146 to 148 °C.
In turn, `Cc1ccc2c(c1)C(c1ccccc1)CC(NC(=O)Nc1cccc(Cl)c1)C(=O)N2CC(=O)NC(C)(C)C` (stereo unspecified) yielded a melting point of 282 to 285 °C.
Compound `Cc1oc(-c2ccc(C(F)(F)F)cc2)cc1COc1cccc(C=O)c1` registered a melting point of 85 to 86 °C.
`Cc1ccc(S(=O)(=O)n2ccc3c(Cl)c(F)cnc32)cc1` returned a melting point of 125 °C.
For the compound `O=C1NCCC1=Cc1ccc(C2=NCCO2)cc1`, the melting point is 258 to 262 °C.
To `CSc1ccc2nccn2n1` belongs 66 to 68 °C.
`O=C1NCCN(N=Cc2ccco2)C1=O` displayed a melting point of 193 to 197 °C.
For `O=C1C(Cl)=C(Nc2ccc(O)cc2)C(=O)c2ccccc21`, the melting point worked out at 233 °C.
In turn, `CC(C)(C)C(=O)c1ccc(C(=O)N[C@@H](Cc2ccccc2)C(N)=O)cc1` showed a melting point of 120 to 123 °C.
On to `Cc1ncc([N+](=O)[O-])n1CCOC(=O)Cc1ccccc1Nc1c(Cl)cccc1Cl`, for which the melting point was 122 to 124 °C.
For `COc1ccc(C(=O)Nc2c(Cl)cncc2Cl)c2c3cc(Cl)ccc3n(Cc3ccccc3)c12`, the melting point is 210 to 213 °C.
Regarding `CC(C(O)c1ccc2c(c1)CCCS2)N1CCC(NC(=O)c2ccccc2)CC1` (stereo unspecified), the melting point fell in the range of 200 to 201 °C.
Turning to `O=C(CNC(=O)c1ccc([N+](=O)[O-])c(I)c1)OCc1ccccc1`, the melting point is 98 to 100 °C.
In the case of `COc1ccc(C(=O)Nc2ccc3ccc(Cl)nc3n2)cn1`, the melting point worked out at 270 °C.
For `CC(=S)NC[C@H]1CN(c2ccc(N3CCC(=O)N(C)CC3)c(F)c2)C(=O)O1` the value was 157 to 158 °C.
To `FC(F)(F)C(F)(F)C1(CNC2=NCCO2)CCCCC1` belongs 115 to 118 °C; to `C[C@@H]1C[C@H](C)CN(C(=O)[C@@H]2Cc3ccccc3N2c2cccnn2)C1`, 159 to 160 °C; to `N=C(N)Nc1nc(CSCCNC2=NS(=O)N=C2O)cs1` (stereo unspecified), 148 to 151 °C.
To `COC(=O)[C@@H](Cc1ccccc1)Oc1c(Br)cc(-c2c3ccccc3c(Br)c3sc(C)c(C)c23)cc1Br` belongs 174 to 175 °C; to `COC12CC(C)(c3nc(-c4cncc(Br)c4)no3)CN(C)C1Cc1cn(C)c3cccc2c13` (stereo unspecified), 185 to 189 °C.
For `CCOC(=O)C1(C(=O)Nc2ccc(Br)cc2C)OC1C` (stereo unspecified), the melting point was 57 to 60 °C.
Turning to `Cc1nnc(-c2cccc(-c3cnc4[nH]cc(C(=O)C5(C)CCCCC5)c4n3)c2)o1`, the melting point lay in the range of 234 to 236 °C.
To `CCc1ccc(Nc2nc3cc(NC(=O)c4ccccc4Nc4cccc(C(F)(F)F)c4)ccc3o2)cc1` belongs 174 to 176 °C; to `CC(C)COc1ccc(F)cc1OCCOS(C)(=O)=O`, 53 to 55 °C.
As for `Nc1ccn(C2CC(N)C(CO)O2)c(=O)n1` (stereo unspecified), the melting point turned out to be 207 °C.
Compound `CCOC(=O)c1sc(SC)c2c1CCc1nc(C)oc1-2` came in with a melting point of 131 to 132 °C.
To `COc1ccc(Cn2nc(-c3cccc(Cl)c3)c3ncccc3c2=O)cn1` belongs 145 °C; to `CCOC(=O)C(CC#N)(C(=O)OCC)C1COC(=O)C1` (stereo unspecified), 77 to 78 °C; to `CC(C)(C)S(=O)(=O)N1C[C@H](O)C[C@@H]1c1cc(F)cc(C#N)c1`, 93 to 96 °C.
For `CCCCN1CCC(CNC(=O)c2cc(Cl)c(NC)n3ccnc23)CC1` the value was 148 °C.
`CC1(CSc2ccc(Cl)cc2)COC2(CCCCCCCCCCC2)OO1` (stereo unspecified) yielded a melting point of 93 to 94 °C.
To `Cc1nnc2sc3cc(Cl)ccc3n12` belongs 186 to 188 °C.
To `Cc1cccc(-c2nc(NC(=O)c3cccnc3)sc2-c2ccnc(NCc3ccccc3)c2)c1` belongs 220 to 222 °C; to `CCc1cc(OC)c(N)c2ccccc12`, 80 °C; to `Cn1nc(-c2cc3c(cc2F)NC(=O)CO3)c(Cl)c1C(F)(F)F`, 242 °C.
For `CCCc1c(O)ccc2c(=O)cc(-c3ccc(C(=O)OCC)cc3)oc12`, the melting point lay in the range of 225 to 226 °C.
In the case of `O=C(O)c1ccc(Cn2cnc3ccc(Cl)c(C(=O)O)c32)cc1`, the melting point fell in the range of 291 to 292 °C.
`Cc1nn(-c2ccccn2)c2[nH]c3cc(F)c(F)cc3c(=O)c12` showed a melting point of 274 to 277 °C.
In turn, `ClCc1cccc(OCc2ccc3ccccc3n2)c1` gave a melting point of 39 to 43 °C.
In turn, `CCC(CC)n1nnc2c(Nc3ccc(C(C)C)cc3Br)nc(C)cc21` had a melting point of 144 to 145 °C.
For `COc1nc(OC)c(C(C)C)c(C(=O)c2cc(C)cc(C=O)c2)n1` the value was 111 to 113 °C; for `CCC(c1ccncc1)N1CCCNS1(=O)=O` (stereo unspecified), 90 to 105 °C.
`O=C(c1ccccc1)c1cnc2c(cnn2Cc2ccco2)c1O` came in with a melting point of 102 °C.
Turning to `CCCCCCOCC1CN(c2cc3c(cc2F)c(=O)c(C(=O)O)cn3CC)CCN1C` (stereo unspecified), the melting point fell in the range of 172 to 174 °C.
For the compound `N#Cc1ncn2c(-c3cccnc3)ccnc12`, the melting point is 258 to 260 °C.
`CCCc1cc(-c2cc(OC)c3c(C)c(C)c(=O)oc3c2)on1` returned a melting point of 94 °C.
`FC(F)(F)c1ccc(/C=C/c2cc(Cl)cc(Cl)c2)cc1` came in with a melting point of 98 to 100 °C.
With `CC1(C)OC(=O)Nc2ccc(OCCCCS(=O)c3ccc(Cl)c(Cl)c3)cc21` (stereo unspecified), the melting point lay in the range of 138 to 139 °C.
In the case of `FC(F)(F)Oc1cccc(Cn2cnc3c(-c4ccco4)ncnc32)c1`, the melting point was 133 to 135 °C.
`CC(=O)OCn1cc(Cl)c(-c2cc(Cl)cc(Cl)c2)n1` came in with a melting point of 95 °C.
`CNCCCn1cc2c(C3C(=O)Nc4ccc(Br)cc43)ncnc2n1` (stereo unspecified) showed a melting point of 240 to 243 °C.
For `O=C(CCc1ccccc1)N1CCN(C(=O)C(Cc2ccc(O)cc2)NS(=O)(=O)c2cccc3cnccc23)CC1` (stereo unspecified) the value was 172 to 178 °C; for `CCOC(=O)C(=O)Cc1c(OCc2ccccc2)cc(C)cc1[N+](=O)[O-]`, 80 to 82 °C.
To `COC(=O)C1=C(C)NC(C)=C(C(=O)OCCN2CCC(C(c3ccccc3)c3ccccc3)CC2)C1c1cccc([N+](=O)[O-])c1` (stereo unspecified) belongs 82 to 85 °C; to `Cc1[nH]c2ccccc2c1CSCCN1CC=C(c2ccccc2)CC1`, 182 °C.

The term melting point denotes the temperature of the solid-liquid transition.
